Molecular target: T1, SMARCA2 (Homo sapiens, UniProt P51531)
T1 construct: endogenous in cells; host or cells: HT1080 (CRISPR HiBiT knock-in clone, generated in house)
Assay: SMARCA2 HiBiT degradation assay (cellular)
Type: cell-based
Settings: table head names A549; for DC50: 6 h incubation, HiBiT-tagged SMARCA2, luminescence read-out, read-out: HiBit A549 SMARCA2 IP (nM) 6 h; for Emax: A549, 6 h incubation, Emax = amount of residual protein remaining in the cell following compound treatment

T1 sequence (P51531 whole entry): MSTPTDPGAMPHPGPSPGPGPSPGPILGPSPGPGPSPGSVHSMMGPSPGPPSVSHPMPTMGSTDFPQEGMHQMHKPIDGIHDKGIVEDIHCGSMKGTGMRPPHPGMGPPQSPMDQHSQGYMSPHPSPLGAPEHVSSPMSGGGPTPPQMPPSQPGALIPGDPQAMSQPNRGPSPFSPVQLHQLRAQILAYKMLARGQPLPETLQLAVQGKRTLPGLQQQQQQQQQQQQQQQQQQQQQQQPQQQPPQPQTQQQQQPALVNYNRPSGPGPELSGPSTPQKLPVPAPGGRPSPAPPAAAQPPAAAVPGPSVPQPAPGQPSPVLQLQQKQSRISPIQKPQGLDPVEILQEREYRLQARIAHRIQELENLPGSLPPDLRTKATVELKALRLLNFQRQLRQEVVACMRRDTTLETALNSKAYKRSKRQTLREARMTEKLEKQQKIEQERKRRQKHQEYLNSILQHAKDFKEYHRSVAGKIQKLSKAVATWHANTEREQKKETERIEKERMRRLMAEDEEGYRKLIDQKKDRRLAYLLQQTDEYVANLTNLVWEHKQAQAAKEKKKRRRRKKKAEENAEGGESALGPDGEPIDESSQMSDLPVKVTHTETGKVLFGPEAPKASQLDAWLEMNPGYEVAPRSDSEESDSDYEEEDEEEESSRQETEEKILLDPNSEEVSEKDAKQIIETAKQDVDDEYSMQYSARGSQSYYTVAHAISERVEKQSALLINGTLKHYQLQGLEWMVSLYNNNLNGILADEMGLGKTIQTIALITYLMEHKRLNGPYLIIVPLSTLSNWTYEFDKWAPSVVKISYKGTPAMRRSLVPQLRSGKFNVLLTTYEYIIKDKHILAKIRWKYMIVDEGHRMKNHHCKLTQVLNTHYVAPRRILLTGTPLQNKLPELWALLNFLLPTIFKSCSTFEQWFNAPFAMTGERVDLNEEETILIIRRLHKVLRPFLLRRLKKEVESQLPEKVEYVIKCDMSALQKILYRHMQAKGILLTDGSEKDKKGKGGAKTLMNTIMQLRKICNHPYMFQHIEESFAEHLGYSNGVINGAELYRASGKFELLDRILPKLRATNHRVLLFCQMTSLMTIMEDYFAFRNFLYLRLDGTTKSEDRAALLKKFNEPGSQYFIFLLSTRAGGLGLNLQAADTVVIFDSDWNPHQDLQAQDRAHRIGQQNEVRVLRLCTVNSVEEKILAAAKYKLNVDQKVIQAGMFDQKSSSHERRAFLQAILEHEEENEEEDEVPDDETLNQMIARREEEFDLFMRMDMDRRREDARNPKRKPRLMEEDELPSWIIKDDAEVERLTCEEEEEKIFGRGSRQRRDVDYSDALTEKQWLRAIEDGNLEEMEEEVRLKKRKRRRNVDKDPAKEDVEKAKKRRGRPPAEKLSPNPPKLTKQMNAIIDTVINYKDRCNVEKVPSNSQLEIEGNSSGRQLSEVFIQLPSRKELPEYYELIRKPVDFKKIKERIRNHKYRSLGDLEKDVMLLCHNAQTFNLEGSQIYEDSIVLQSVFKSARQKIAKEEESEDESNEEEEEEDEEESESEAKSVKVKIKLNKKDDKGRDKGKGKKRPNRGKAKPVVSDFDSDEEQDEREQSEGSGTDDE

DC50 | Emax | Structure (SMILES)
190 nM | 65% | Nc1nnc(-c2ccccc2O)cc1N1CCN(c2ccccc2)C(C(=O)NCC2CCN(C(=O)C3CCN(c4ccc5c(c4)C(=O)N(C4CCC(=O)NC4=O)C5=O)CC3)CC2)C1 (stereo not shown) [Example 82, 4-(3-amino-6-(2-hydroxyphenyl)pyridazin-4-yl)-N-((1-(1-(2-(2,6-dioxopiperidin-3-yl)-1,3-dioxoisoindolin-5-yl)piperidine-4-carbonyl)piperidin-4-yl)methyl)-1-phenylpiperazine-2-carboxamide]
273 nM | 59% | Nc1nnc(-c2ccccc2O)cc1N1CCC2(CC1)CN(c1cccc(OCCN3CCN(C(=O)C4CCN(c5ccc6c(c5)C(=O)N(C5CCC(=O)NC5=O)C6=O)CC4)CC3)c1)CCO2 (stereo not shown) [Example 83, 5-(4-(4-(2-(3-(9-(3-amino-6-(2-hydroxyphenyl)pyridazin-4-yl)-1-oxa-4,9-diazaspiro[5.5]undecan-4-yl)phenoxy)ethyl)piperazine-1-carbonyl)piperidin-1-yl)-2-(2,6-dioxopiperidin-3-yl)isoindoline-1,3-dione]
17 nM | 26% | Nc1nnc(-c2ccccc2O)cc1N1CCN(c2cccc(OCCN3CCN(C(=O)C4CCN(c5ccc6c(c5)C(=O)N(C5CCC(=O)NC5=O)C6=O)CC4)CC3)c2)C2(CC2)C1 (stereo not shown) [Example 84, 5-(4-(4-(2-(3-(7-(3-amino-6-(2-hydroxyphenyl)pyridazin-4-yl)-4,7-diazaspiro[2.5]octan-4-yl)phenoxy)ethyl)piperazine-1-carbonyl)piperidin-1-yl)-2-(2,6-dioxopiperidin-3-yl)isoindoline-1,3-dione]
92 nM | 43% | Nc1nnc(-c2ccccc2O)cc1N1CCN(c2ccccc2)C(C(=O)NCC2CCC(NC(=O)C3CCN(c4ccc5c(c4)C(=O)N(C4CCC(=O)NC4=O)C5=O)CC3)CC2)C1 (stereo not shown) [Example 85, 4-[3-amino-6-(2-hydroxyphenyl)pyridazin-4-yl]-N-[[4-[[1-[2-(2,6-dioxopiperidin-3-yl)-1,3-dioxoisoindol-5-yl]piperidine-4-carbonyl]amino]cyclohexyl]methyl]-1-phenylpiperazine-2-carboxamide]
59 nM | 37% | Nc1nnc(-c2ccccc2O)cc1N1CCC(C(=O)NCC2CCN(C(=O)C3CCN(c4ccc5c(c4)C(=O)N(C4CCC(=O)NC4=O)C5=O)CC3)CC2)(c2ccccc2)CC1 (stereo not shown) [Example 86, 1-[3-amino-6-(2-hydroxyphenyl)pyridazin-4-yl]-N-[[1-[1-[2-(2,6-dioxo-3-piperidyl)-1,3-dioxo-isoindolin-5-yl]piperidine-4-carbonyl]-4-piperidyl]methyl]-4-phenyl-piperidine-4-carboxamide]
81 nM | 48% | Nc1nnc(-c2ccccc2O)cc1N1CCN(c2ccccc2)C(C(=O)NC2CCN(C(=O)C3CCN(c4ccc5c(c4)C(=O)N(C4CCC(=O)NC4=O)C5=O)CC3)CC2)C1 (stereo not shown) [Example 87, 4-(3-amino-6-(2-hydroxyphenyl)pyridazin-4-yl)-N-(1-(1-(2-(2,6-dioxopiperidin-3-yl)-1,3-dioxoisoindolin-5-yl)piperidine-4-carbonyl)piperidin-4-yl)-1-phenylpiperazine-2-carboxamide]
55 nM | 37% | CC(C)(Nc1cccc2c1C(=O)N(C1CCC(=O)NC1=O)C2=O)c1cn(CCCCCCCCCN2CCN(c3ccc(N4CCCC(Oc5cc(-c6ccccc6O)nnc5N)C4)cc3)CC2)nn1 (stereo not shown) [Example 88, 4-[[1-[1-[9-[4-[4-[3-[3-amino-6-(2-hydroxyphenyl)pyridazin-4-yl]oxy-1-piperidyl]phenyl]piperazin-1-yl]nonyl]triazol-4-yl]-1-methyl-ethyl]amino]-2-(2,6-dioxo-3-piperidyl)isoindoline-1,3-dione]
55 nM | 30% | CC(Nc1cccc2c1C(=O)N(C1CCC(=O)NC1=O)C2=O)c1cn(CCCCCCCCCN2CCN(c3ccc(N4CCCC(Oc5cc(-c6ccccc6O)nnc5N)C4)cc3)CC2)nn1 (stereo not shown) [Example 89, 4-[1-[1-[9-[4-[4-[3-[3-amino-6-(2-hydroxyphenyl)pyridazin-4-yl]oxy-1-piperidyl]phenyl]piperazin-1-yl]nonyl]triazol-4-yl]ethylamino]-2-(2,6-dioxo-3-piperidyl)isoindoline-1,3-dione]
103 nM | 37% | Nc1nnc(-c2ccccc2O)cc1OC1CCCN(c2ccc(N3CCN(CCCCCCCCCn4cc(C5(Nc6cccc7c6C(=O)N(C6CCC(=O)NC6=O)C7=O)CC5)nn4)CC3)cc2)C1 (stereo not shown) [Example 90, 4-[[1-[1-[9-[4-[4-[3-[3-amino-6-(2-hydroxyphenyl)pyridazin-4-yl]oxy-1-piperidyl]phenyl]piperazin-1-yl]nonyl]triazol-4-yl]cyclopropyl]amino]-2-(2,6-dioxo-3-piperidyl)isoindoline-1,3-dione]
90 nM | 46% | Nc1nnc(-c2ccccc2O)cc1N1CCC(NC(=O)CCCN2CCC(c3ccc(NC4CCC(=O)NC4=O)cc3)CC2)(c2ccccc2)CC1 (stereo not shown) [Example 91, N-[1-[3-amino-6-(2-hydroxyphenyl)pyridazin-4-yl]-4-phenyl-4-piperidyl]-4-[4-[4-[(2,6-dioxo-3-piperidyl)amino]phenyl]-1-piperidyl]butanamide]
104 nM | 30% | Nc1nnc(-c2ccccc2O)cc1N1CCC(C(=O)NCC2CCN(CC3CCN(c4ccc5c(c4)C(=O)N(C4CCC(=O)NC4=O)C5=O)CC3)CC2)(c2ccccc2)CC1 (stereo not shown) [Example 100, 1-(3-amino-6-(2-hydroxyphenyl)pyridazin-4-yl)-N-((1-((1-(2-(2,6-dioxopiperidin-3-yl)-1,3-dioxoisoindolin-5-yl)piperidin-4-yl)methyl)piperidin-4-yl)methyl)-4-phenylpiperidine-4-carboxamide]
102 nM | 28% | Nc1nnc(-c2ccccc2O)cc1N1CCC(C(=O)NCC2CCN(C(=O)CN3CCC(c4ccc(OC5CCC(=O)NC5=O)cc4)CC3)CC2)(c2ccccc2)CC1 (stereo not shown) [Example 101, 1-(3-amino-6-(2-hydroxyphenyl)pyridazin-4-yl)-N-((1-(2-(4-(4-((2,6-dioxopiperidin-3-yl)oxy)phenyl)piperidin-1-yl)acetyl)piperidin-4-yl)methyl)-4-phenylpiperidine-4-carboxamide]
102 nM | 38% | Nc1nnc(-c2ccccc2O)cc1N1CCC(C(=O)NCC2CCN(C(=O)CN3CCC(c4ccc(NC5CCC(=O)NC5=O)cc4)CC3)CC2)(c2ccccc2)CC1 (stereo not shown) [Example 102, 1-[3-amino-6-(2-hydroxyphenyl)pyridazin-4-yl]-N-[[1-[2-[4-[4-[(2,6-dioxopiperidin-3-yl)amino]phenyl]piperidin-1-yl]acetyl]piperidin-4-yl]methyl]-4-phenylpiperidine-4-carboxamide]
104 nM | 45% | Nc1nnc(-c2ccccc2O)cc1N1CCC(C(=O)NCC2CCN(C(=O)CC3CCN(c4ccc5c(c4)C(=O)N(C4CCC(=O)NC4=O)C5=O)CC3)CC2)(c2ccccc2)CC1 (stereo not shown) [Example 103, 1-(3-amino-6-(2-hydroxyphenyl)pyridazin-4-yl)-N-((1-(2-(1-(2-(2,6-dioxopiperidin-3-yl)-1,3-dioxoisoindolin-5-yl)piperidin-4-yl)acetyl)piperidin-4-yl)methyl)-4-phenylpiperidine-4-carboxamide]
103 nM | 33% | Nc1nnc(-c2ccccc2O)cc1N1CCC(C(=O)NCC2CCN(C(=O)CCCN3CCC(c4ccc(OC5CCC(=O)NC5=O)cc4)CC3)CC2)(c2ccccc2)CC1 (stereo not shown) [Example 104, 1-(3-amino-6-(2-hydroxyphenyl)pyridazin-4-yl)-N-((1-(4-(4-(4-((2,6-dioxopiperidin-3-yl)oxy)phenyl)piperidin-1-yl)butanoyl)piperidin-4-yl)methyl)-4-phenylpiperidine-4-carboxamide]
100 nM | 33% | Nc1nnc(-c2ccccc2O)cc1N1CCC(C(=O)NCC2CCN(C(=O)CCCN3CCC(c4ccc(NC5CCC(=O)NC5=O)cc4)CC3)CC2)(c2ccccc2)CC1 (stereo not shown) [Example 105, 1-(3-amino-6-(2-hydroxyphenyl)pyridazin-4-yl)-N-((1-(4-(4-(4-((2,6-dioxopiperidin-3-yl)amino)phenyl)piperidin-1-yl)butanoyl)piperidin-4-yl)methyl)-4-phenylpiperidine-4-carboxamide]
109 nM | 48% | Nc1nnc(-c2ccccc2O)cc1N1CCC(NC(=O)CN2CCC(c3ccc(OC4CCC(=O)NC4=O)cc3)CC2)(c2ccccc2)CC1 (stereo not shown) [Example 108, N-[1-[3-amino-6-(2-hydroxyphenyl)pyridazin-4-yl]-4-phenyl-4-piperidyl]-2-[4-[4-[(2,6-dioxo-3-piperidyl)oxy]phenyl]-1-piperidyl]acetamide]
103 nM | 29% | Nc1nnc(-c2ccccc2O)cc1OC1CCCN(c2ccc(N3CCN(CCCCCCCCCn4cc(CCCNc5cccc6c5C(=O)N(C5CCC(=O)NC5=O)C6=O)nn4)CC3)cc2)C1 (stereo not shown) [Example 109, 4-[3-[1-[9-[4-[4-[3-[3-amino-6-(2-hydroxyphenyl)pyridazin-4-yl]oxy-1-piperidyl]phenyl]piperazin-1-yl]nonyl]triazol-4-yl]propylamino]-2-(2,6-dioxo-3-piperidyl)isoindoline-1,3-dione]
276 nM | 52% | Nc1nnc(-c2ccccc2O)cc1OC1CCCN(c2ccc(N3CCN(CCCCCCCCCn4cc(CCNc5cccc6c5C(=O)N(C5CCC(=O)NC5=O)C6=O)nn4)CC3)cc2)C1 (stereo not shown) [Example 110, 4-[2-[1-[9-[4-[4-[3-[3-amino-6-(2-hydroxyphenyl)pyridazin-4-yl]oxy-1-piperidyl]phenyl]piperazin-1-yl]nonyl]triazol-4-yl]ethylamino]-2-(2,6-dioxo-3-piperidyl)isoindoline-1,3-dione]
177 nM | 60% | Nc1nnc(-c2ccccc2O)cc1OC1CCCN(c2ccc(N3CCN(C(=O)CCCCCCCCn4cc(CNc5cccc6c5C(=O)N(C5CCC(=O)NC5=O)C6)nn4)CC3)cc2)C1 (stereo not shown) [Example 111, 3-[7-[[1-[9-[4-[4-[3-[3-amino-6-(2-hydroxyphenyl)pyridazin-4-yl]oxy-1-piperidyl]phenyl]piperazin-1-yl]-9-oxo-nonyl]triazol-4-yl]methylamino]-1-oxo-isoindolin-2-yl]piperidine-2,6-dione]

— US20230024096A1, “BIFUNCTIONAL COMPOUNDS FOR THE TREATMENT OF CANCER” (Hoffmann-La Roche Inc., priority 2019, published 2023)
